Columns and labels:
[1] = target: T1, human mu receptor (Homo sapiens, UniProt P35372); experiment: Calcium mobilization assay, CHO mu cells expressing Gαqi5; type: cell-based; conditions: for mu α±SEM: intrinsic activity, Emax ratio to standard agonist EM-2, inactive = inactive up to 10 µM
T1 construct: expressed in transfected cells; host or cells: CHO cells stably co-expressing Gαqi5

[2] = target: T2, human recombinant mu opioid receptor (Homo sapiens, UniProt P35372); experiment: Radioligand binding, [3H]DAMGO displacement, CHO cell membranes
T2 construct: purchased; host or cells: CHO cells (membranes)
T2 sequence (P35372 whole entry): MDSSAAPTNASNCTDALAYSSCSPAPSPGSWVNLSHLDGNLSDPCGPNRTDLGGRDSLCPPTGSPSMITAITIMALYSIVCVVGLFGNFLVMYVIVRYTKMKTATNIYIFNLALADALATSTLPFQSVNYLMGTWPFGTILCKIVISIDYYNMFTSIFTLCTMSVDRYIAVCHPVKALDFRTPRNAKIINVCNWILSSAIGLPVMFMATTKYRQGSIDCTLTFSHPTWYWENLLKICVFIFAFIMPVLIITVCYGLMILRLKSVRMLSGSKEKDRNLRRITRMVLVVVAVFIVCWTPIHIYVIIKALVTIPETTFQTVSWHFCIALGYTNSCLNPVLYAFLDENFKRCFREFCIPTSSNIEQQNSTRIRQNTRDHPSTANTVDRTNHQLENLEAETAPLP

[3] = target: T3, delta-opioid receptor (Homo sapiens, UniProt P41143); experiment: Calcium mobilization assay, CHO delta cells expressing GαqG66Di5; type: cell-based; parameters: expressed in transfected cells; host or cells: CHO cells co-expressing GαqG66Di5; conditions: for Delta pEC50 (CL95%): calcium mobilization; for Delta pEC50 (CL95%) / Delta α± SEM: inactive = inactive up to 10 µM; for Delta α± SEM: intrinsic activity, Emax ratio to standard agonist DPDPE
T3 sequence (P41143 whole entry): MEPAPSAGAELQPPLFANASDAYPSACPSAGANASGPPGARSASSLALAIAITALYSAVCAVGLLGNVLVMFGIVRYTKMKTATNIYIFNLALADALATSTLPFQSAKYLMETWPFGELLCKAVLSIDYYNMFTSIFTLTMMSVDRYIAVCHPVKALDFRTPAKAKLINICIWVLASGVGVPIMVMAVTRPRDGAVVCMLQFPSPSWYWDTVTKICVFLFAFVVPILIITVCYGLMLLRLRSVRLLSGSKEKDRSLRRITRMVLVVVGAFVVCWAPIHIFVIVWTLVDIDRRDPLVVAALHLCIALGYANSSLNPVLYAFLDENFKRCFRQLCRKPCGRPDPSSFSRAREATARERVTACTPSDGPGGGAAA

[4] = Enzymatic degradation in rat brain homogenate; type: in vitro ADME; conditions: 37°C; for 100 x k, rate constant of degradation: up to 60 min; for half-life at 0.25 mM: rat, pH 7.4, rat brain homogenate, read-out: t1/2, degradation half-life
Protocol: Enzymatic degradation of EM-2 and the analogs was performed measuring their hydrolysis rates in the presence of rat brain homogenate. The homogenate was prepared prior to the experiment. Briefly, rat brains were homogenized in 20 volumes of Tris–HCl (50 mM, pH 7.4) using a Polytron and the obtained aliquots were stored at −80°C. In the experiment, aliquotes of brain homogenate (100 μL, 10 mg protein/mL) were incubated with 100 µL of a peptide (0.5 mM) over 0, 7.5; 15, 22.5; 30, and 60 min at 37°C, in a final volume of 200 µL. After the incubation the degradation reaction was stopped by placing the tube on ice and acidifying the content with 20 µL of HCl (1 M). The aliquots were centrifuged at 20,000 g for 10 min at 4°C. The supernatants were collected and filtered using Millex-GV syringe filters (Millipore). Then the analysis by HPLC on a Vydac C18 column (5 μm, 4.6 × 250 mm), using the solvent system of 0.1% TFA in water (A) and 80% acetonitrile in water containing 0.1% TFA (B) and a linear gradient of 0%–100% B over 25 min, was performed. Three independent experiments for each assay were carried out in duplicate. The rate constants of degradation (k) were obtained by the least square linear regression analysis of logarithmic peak areas [ln (A/AD)], where A—amount of remained peptide, AD—initial amount of peptide versus time. Degradation half-lives (t1/2) were calculated from the rate constants as ln2/k.

[5] = target: T4, mu receptor-β-arrestin 2 interaction (Homo sapiens, UniProt P35372); experiment: cell-based; parameters: expressed in transfected cells; conditions: read-out: pKb (CL95%) (converted)
T4 sequence (P35372 whole entry): as the sequence (P35372 whole entry) above
Protocol: In antagonism experiments, a 10 min preincubation with vehicle or fixed concentrations of ligand preceded the injection of increasing concentrations of EM-2.
Antagonist potencies (pKb) were computed applying the following equation: pKb = (log (CR − 1)) − log [Anta] with CR as the ratio between agonist potency (molar) in the presence and absence of antagonist and [Anta] is the molar concentration of antagonist. pKb represents the concentration of antagonist that occupies half of the receptor population at equilibrium, expressed in molar units.

[6] = target: T5, human recombinant kappa opioid receptor (Homo sapiens, UniProt P41145); experiment: Radioligand binding, [3H]U-69593 displacement, CHO cell membranes
T5 construct: purchased; host or cells: CHO cells (membranes)
T5 sequence (P41145 whole entry): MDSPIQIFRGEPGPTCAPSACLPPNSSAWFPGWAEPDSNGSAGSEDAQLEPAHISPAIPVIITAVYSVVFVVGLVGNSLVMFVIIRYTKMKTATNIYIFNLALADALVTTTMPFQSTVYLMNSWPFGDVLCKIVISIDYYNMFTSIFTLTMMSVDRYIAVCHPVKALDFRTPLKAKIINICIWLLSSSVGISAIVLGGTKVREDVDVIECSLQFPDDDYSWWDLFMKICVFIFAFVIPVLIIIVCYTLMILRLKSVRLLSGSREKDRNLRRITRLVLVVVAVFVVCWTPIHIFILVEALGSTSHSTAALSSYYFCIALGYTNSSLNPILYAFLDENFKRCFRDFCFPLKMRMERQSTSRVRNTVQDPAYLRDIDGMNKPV

[7] = target: T4, mu receptor-β-arrestin 2 interaction; experiment: BRET mu-β-arrestin 2 interaction assay (living SH-SY5Y cells, mu-RLuc/β-arrestin 2-RGFP), agonism; conditions: BRET mu-β-arrestin 2; Inactive: Emax < 0.10; analog 6 obtained by forcing the Emax to 1
Protocol: (§1) SH-SY5Y cells stably co-expressing the fusoproteins mu-RLuc and Gβ1-RGFP or mu-RLuc and β-arrestin 2-RGFP were grown in DMEM/F12 (1:1) medium supplemented with 10% FBS, 2 mM L-Glutamine, 100 μg/mL hygromycin B, 400 μg/mL G418, 100 units/mL penicillin G, 100 μg/mL streptomycin and 1 μg/mL Fungizone at 37°C in a humidified atmosphere with of 5% CO2.
Mu- β-arrestin 2 interaction—Living SH-SY5Y cells expressing mu-RLuc and β-arrestin 2-RGFP were seeded at a cell density of 100,000 cells/well 24 h prior to the test. On the day of the experiment, medium was discarded, and cells were washed with PBS supplemented with 0.5 mM MgCl2, 0.9 mM CaCl2. Cells were subsequently incubated with 2 μM Prolume Purple Coelenterazine (NanoLight Technology, White Mountain, AZ; United States) for 10 min before bioluminescence reading.
(§2) In agonism experiments, ligands were added and incubated for 5 min before microplate reading. […] BRET ratios were computed as follow: RGFPCPS/RLucCPSligand−RGFPCPS/RLucCPSvehicle
(§3) Concentration-response curves to agonists were fitted to the four-parameter logistic non-linear regression model as follows: Effect=Basal+Emax−Basal/1+10^LogEC50−Logligand×HillSlope

[8] = n-Octanol/water partition coefficient (log P); type: physicochemical; conditions: n-octanol / 0.05 M HEPES buffer in 0.1 M NaCl, pH 7.4
Protocol: Determination of log P was performed according to the method described by ([Liu et al., 2006]). Peptides were dissolved in 0.05 M HEPES buffer in 0.1 M NaCl, pH 7.4, then an equal volume of n-octanol was added and mixtures were vortexed for 2 min. Samples were centrifuged at 4,000 rpm for 1 min. After separation, aqueous and octanol phases were used to quantify peptide content by RP-HPLC.
Octanol phase was lyophilized and reconstituted in 80% acetonitrile in water containing 0.1% TFA before RP-HPLC. All n-octanol/buffer distribution studies were performed in triplicate.

[9] = target: T6, human kappa receptor (Homo sapiens, UniProt P41145); experiment: Calcium mobilization assay, CHO kappa cells expressing Gαqi5; type: cell-based; conditions: inactive = inactive up to 10 µM; for Kappa pEC50 (CL95%): calcium mobilization; for Kappa α± SEM: intrinsic activity, Emax ratio to standard agonist dynorphin A
T6 construct: expressed in transfected cells; host or cells: CHO cells stably co-expressing Gαqi5
T6 sequence (P41145 whole entry): as above

[10] = target: T3, delta-opioid receptor; experiment: Radioligand binding, [3H]deltorphin-2 displacement, CHO cell membranes; parameters: purchased; host or cells: CHO cells (membranes)
[11] = target: mu receptor-G protein interaction (Homo sapiens, UniProt P35372); experiment: BRET mu-G protein interaction assay (membranes of SH-SY5Y cells, mu-RLuc/Gβ1-RGFP)
Sequence of mu receptor-G protein interaction (P62871 whole entry): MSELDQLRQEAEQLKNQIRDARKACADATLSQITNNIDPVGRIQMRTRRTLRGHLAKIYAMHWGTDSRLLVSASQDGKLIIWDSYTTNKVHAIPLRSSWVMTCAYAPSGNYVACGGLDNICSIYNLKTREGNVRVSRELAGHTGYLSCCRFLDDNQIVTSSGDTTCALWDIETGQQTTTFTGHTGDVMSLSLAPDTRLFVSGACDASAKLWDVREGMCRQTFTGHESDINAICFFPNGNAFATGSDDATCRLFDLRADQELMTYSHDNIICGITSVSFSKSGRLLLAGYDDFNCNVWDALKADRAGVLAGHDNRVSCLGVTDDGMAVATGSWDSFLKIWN
Sequence of mu receptor-G protein interaction (P35372 whole entry): as the sequence (P35372 whole entry) above
Protocol: as §1
Total protein in membrane preparations was determined by colorimetric method with the Quantum Protein-BCA kit (EuroClone, Pero (MI), IT) and measured using the multiplate reader Victor Nivo (PerkinElmer, Walthman, MA, United States). White opaque 96 wells microplates (PerkinElmer, Walthman, MA, United States) were used to carry out BRET assays. Cell membranes were thawed and resuspended in PBS supplemented with 0.02% BSA before the assay, and an amount of 5 μg of total protein was dispensed in each 96 well. All experiments were carried out at room temperature.
as §2, §3

[12] = ref Bergese et al., 2019, cited from earlier work

T1 sequence (P35372 whole entry): as above

Row | Compound | EC50 [1] | mu α±SEM [1] | Ki [2] | Delta pEC50 (CL95%) [3] | Delta α± SEM [3] | 100 x k, rate constant of degradation [4] | half-life at 0.25 mM ([4]; ln2/k) | Kb [5] | Ki [6] | β-Arrestin 2 pEC50 (CL95%) [7] | logD [8] | Kappa pEC50 (CL95%) [9] | Kappa α± SEM [9] | Ki [10] | EC50 [11] | EC50 [3] | t1/2, degradation half-life ([4]; ln2/k) | patients with lack of efficacy ([12]; moderate to severe acute pain in adults) | patients who experienced some adverse effects (vomiting, nausea, headache, or constipation) [12]
1 | NC(=O)[C@H](Cc1ccccc1)NC(=O)[C@H](Cc1ccccc1)NC(=O)[C@H]1CCCCN1C(=O)[C@@H](N)Cc1ccc(O)cc1 [analog 2, Tyr-(R)-Pip-Phe-Phe-NH2] | 58.9 nM | 0.64 ± 0.04 | 17.7 ± 1.14 nM | inactive | inactive | 0.57 ± 0.08 per min | 2.02 ± 0.0517 h | 170 nM | > 1000 nM | Inactive | 2.3 | inactive | inactive | 682 ± 33 nM | 38 nM | – | – | – | –
2 | Cc1cc(O)cc(C)c1C[C@H](N)C(=O)N1CCCC[C@@H]1C(=O)N[C@@H](Cc1ccccc1)C(=O)N[C@@H](Cc1ccccc1)C(N)=O [analog 3, Dmt-(R)-Pip-Phe-Phe-NH2] | 1.51 nM | 0.70 ± 0.03 | 3.92 ± 0.5 nM | – | 0.56 ± 0.05 | 0.73 ± 0.07 per min | 1.57 ± 0.0467 h | 0.0794 nM | 72 ± 6 nM | Inactive | 2.49 | inactive | inactive | 37 ± 5 nM | 1.91 nM | 148 nM | – | – | –
3 | NC(=O)[C@H](Cc1ccccc1)NC(=O)[C@@H](CNC(=O)[C@@H]1CCCN1C(=O)[C@@H](N)Cc1ccc(O)cc1)Cc1cccc2ccccc12 [analog 10, Tyr-Pro-(R)-β ^ 2 -1-Nal-Phe-NH2] | – | 0.25 ± 0.06 | – | inactive | inactive | 0.41 ± 0.02 per min | 2.8 h | 631 nM | > 1000 nM | Inactive | 2.5 | inactive | inactive | > 1000 nM | 105 nM | – | 2.805 ± 0.0917 h | – | –
4 | Cc1cc(O)cc(C)c1C[C@H](N)C(=O)N1CCC[C@H]1C(=O)NC[C@@H](Cc1cccc2ccccc12)C(=O)N[C@@H](Cc1ccccc1)C(N)=O [analog 11, Dmt-Pro-(R)-β ^ 2 -1-Nal-Phe-NH2] | 9.77 nM | 0.57 ± 0.05 | – | inactive | inactive | 0.56 ± 0.02 per min | 2.05 ± 0.0983 h | 0.398 nM | > 1000 nM | Inactive | 2.71 | inactive | inactive | – | 4.9 nM | – | – | – | –
5 | COc1ccsc1CNCC[C@@]1(c2ccccn2)CCOC2(CCCC2)C1 [oliceridine, [(3-methoxythiophen-2-yl)methyl]({2-[(9R)-9-(pyridin-2-yl)-6-oxaspiro-[4.5]decan-9-yl]ethyl})amine] | – | – | – | – | – | – | – | – | – | – | – | – | – | – | – | – | – | less than 5% | 64%
